{
  "source": "patent US20260344665A1",
  "about": "“FUNGICIDAL COMPOUND” (priority 2022, published 2026)",
  "key": {"[1]": {"tested_on": "Blumeria graminis f.sp. tritici", "assay": "Powdery mildew assay in wheat (haustoria formation)", "format": "in vivo", "details": "Blumeria graminis, 48 h, read-out: haustoria formation (% relative to control)"}, "[2]": {"tested_on": "ROS production in wheat leaf discs", "assay": "Reactive oxygen species (ROS) burst assay with wheat leaf discs", "details": "INA 100 μM; treated vs. control, 40 minutes"}, "[3]": {"tested_on": "Puccinia recondita f. sp. tritici", "assay": "Leaf painting assay in wheat seedling, Puccinia recondita preventive", "format": "in vivo", "details": "188.00 ppm, preventive", "description": "(§1) Wheat seedlings of the variety Riband (for Zymoseptoria tritici trials) or variety Arina (for Puccinia recondite trials) were grown in the glasshouse until 14d after seeding. At this time, such seedlings usually have a first leaf fully emerged (designated L1), a second leaf fully emerged (L2) and a third leaf (L3) that is partially emerged and in the process of development. Using a permanent pen, two dots were applied on the second leaf such as to generate three segments of roughly equal size: Segment A (at the base), segment B (middle part) and segment C (tip of the leaf). A stock solution of the compound of Formula (I) was produced in water and of benzovindiflupyr in DMSO at a concentration of 10,000 ppm. […] The diluted compound was applied to the middle segment of L2 using a conventional cotton stick; the cotton stick was soaked in the diluted compound and rubbed several times on the adaxial leaf surface between the two marks. One day later, the complete plant was inoculated with a fungal spore suspension using a paint brush. The spore suspension was applied until before run-off.\nFor infection with Puccinia recondita (preventive): The test plants were inoculated by spraying them with a spore suspension one day after application (spore suspension at 80,000 spores per ml in water supplemented with Tween20 at 0.1%). After an incubation period of 1 day at 20 °C and 95% rh, the inoculated test plants were kept at 20 °C and 60% rh in a greenhouse.\n(§2) The three segments of the leaf were evaluated individually."}, "Zymoseptoria tritici": {"tested_on": "Zymoseptoria tritici", "assay": "Leaf painting assay in wheat seedling, Zymoseptoria tritici preventive", "format": "in vivo", "details": "Experiment 1; 188.00 ppm; tip segment; preventive", "description": "as §1\nFor infection with Zymoseptoria tritici (preventive), the test plants were inoculated by spraying a spore suspension on them one day after application (1.5 Mio spores per ml in water supplemented with 0.01% Tween20). After an incubation period of 4 days at 22 °C/21 °C (day/night) and 95% rh, the inoculated test plants were kept at 22 °C/21 °C (day/night) and 70% rh in a greenhouse.\nas §2"}, "[4]": {"tested_on": "Blumeria graminis f.sp. tritici", "assay": "Mixture with malonomicin, leaf disc, Blumeria graminis f.sp. tritici preventive", "format": "in vivo", "details": "foliar, 168 h, read-out: control of fungal growth", "excerpt": "(§3) A stock solution for oligosaccharide compound according to the present invention was produced in water plus 0.025% Tween®20. Malonomicin was produced according to Law et al, 2018 (Nature Catalys is | VOL 1 | DECEMBER 2018 | 977-984). A stock solution of malonomicin was produced in water plus 0.025% Tween®20.\n(§4) Assays to test efficacy of mixtures of the compound of Formula (I) in combination with malonomicin on the control of fungal pathogens in a leaf disc assay were designed for two 24 well plates.\n(§5) Table 11 and Table 12: Outline of 24 well testplate (3) and testplate (4) including concentration of compounds per well. The upper number in the cell indicates the oligosaccharide compound of the present invention concentration (ppm), the lower number malonomicin concentration (ppm). Column (1) holds a dilution series of compound of Formula (I), row (4-D) hold a dilution series of malonomicin. Well 4-D-(1) represents an untreated check. This design was applied for tests including Blumeria graminis f.sp. tritici (EPPO code: ERYSGT) with preventive spray timing and Parastagonospora nodorum (EPPO code: LEPTNO) with preventive spray timing.\n(§6) A first set of master plates with 1× concentrated spray solution of the compound of Formula (I) stock diluted in water with concentrations according to Table 8, Table 9, Table 11 and Table 12, respectively, was prepared. Each well contained 0.025% Tween®20. Accordingly, a second set of master plates with 1× concentrated malonomicin stock diluted in water was prepared. Each well of the second set contained 0.025% Tween®20. Leaf segments placed on agar in 24 well plates are sprayed with 8 ul of solution from the master plate containing compound of Formula (I) and the leaf segments were let to dry, followed 2 hours later by 8 ul of solution from the master plate containing malonomicin. After second sprays have dried, leaf segments are infected with fungal spores to obtain a preventive application timing. Alternatively, leaf segments infected one day before spray of the compounds are used, resulting in a curative spray timing. In addition, several plates were produced where leaf segments were sprayed 2× in absence of test compound (with only Tween®20), representing the untreated check samples. For each leaf segment percent leaf coverage of disease symptoms was assessed. Percent leaf coverage reduction relative to the untreated check was calculated. Efficacy of the mixtures was tested in duplicate and on different fungal species. Reported efficacy values are the average of two replicate results.\nBlumeria graminis f.sp. tritici (EPPO Code: ERYSGT) with Preventive Spray Timing\n(§7) Wheat (cultivar Kanzler) leaf segments are placed on agar in multiwell plates (24-well format) and sprayed with test solutions (8 ul per well). After drying, the leaf disks are inoculated with spores of the fungus. After appropriate incubation the activity of a compound is assessed 7 dpi (days post inoculation) as preventive fungicidal activity."}, "Puccinia recondita [5]": {"tested_on": "Puccinia recondita", "assay": "Mixture with malonomicin, leaf disc, Puccinia recondita curative", "format": "in vivo", "details": "foliar, 192 h, read-out: control of fungal growth", "excerpt": "(§8) An additional ingredient having pesticidal activity, for instance fungicidal activity may result in an unexpected synergistic activity. […] The action to be expected E for a given active ingredient combination obeys the so-called COLBY formula and can be calculated as follows (COLBY, S. R. “Calculating synergistic and antagonistic responses of herbicide combination”. Weeds, Vol. 15, pages 20-22; 1967): • ppm=milligrams of active ingredient (=a.i.) per liter of spray mixture • X=% action by active ingredient A) using p ppm of active ingredient • Y=% action by active ingredient B) using q ppm of active ingredient.\n(§9) According to COLBY, the expected (additive) action of active ingredients A)+B) using p+q ppm of active ingredient is:\n(§10) In mathematical terms, synergism corresponds to a positive value for the difference of (O-E). In the case of purely complementary addition of activities (expected activity), said difference (O-E) is zero. A negative value of said difference (O-E) signals a loss of activity compared to the expected activity.\nas §3, §4\n(§11) Table 8 and 9: Outline of 24 well testplate (1) and testplate (2) including concentration of compounds sprayed per well. The upper number in the cell indicates the oligosaccharide compound of the present invention concentration (ppm), the lower number malonomicin concentration (ppm). Column (1) holds a dilution series of compound of Formula (I), row (2-D) hold a dilution series of malonomicin. Well 2-D-(1) represents an untreated check. This design was applied for tests including Puccinia recondita (EPPO code: PUCCRE) with preventive and curative spray timing.\nas §6\nPuccinia recondita (EPPO Code: PUCCRE) with Curative Spray Timing.\nWheat (cultivar Kanzler) leaf segments are placed on agar in multiwell plates (24-well format). The leaf disks are then inoculated with a spore suspension of the fungus. One day after inoculation the test solution is sprayed (8 ul per well). After appropriate incubation the activity of a compound is assessed 8 dpi (days after inoculation) as curative fungicidal activity"}, "Parastagonospora nodorum": {"tested_on": "Parastagonospora nodorum", "assay": "Mixture with malonomicin, leaf disc, Parastagonospora nodorum preventive", "format": "in vivo", "excerpt": "as §3, §4, §5, §6\nParastagonospora nodorum (EPPO Code: LEPTNO)\nas §7, with “a spore suspension” for “spores”, “4” for “7”, “after” for “post”"}, "Puccinia recondita [6]": {"tested_on": "Puccinia recondita", "assay": "Mixture with malonomicin, leaf disc, Puccinia recondita preventive", "format": "in vivo", "excerpt": "as §8, §9, §10, §3, §4, §11\nas §6, with “In addition, several plates were produced where leaf segments were sprayed 2× in absence of test compound (with only Tween®20), representing the untreated check samples.” left out, “Efficacy of the mixtures was tested in duplicate and on different fungal species. Reported efficacy values are the average of two replicate results.” left out\nWheat (cultivar Kanzler) leaf segments are placed on agar in multiwell plates (24-well format) and sprayed with test solutions (8 ul per well). […] After appropriate incubation the activity of a compound is assessed 8 dpi (days after inoculation) as preventive fungicidal activity."}},
  "data": [
    {"smiles": "O=C(O)c1cc(Cl)nc(Cl)c1", "note": "[INA, 2.6-dichloro-isonicotinic acid, reference compound]", "values": [
      {"measurement": "activity at 100 µM", "setting": "[1]", "value": 27.6, "unit": "%"},
      {"measurement": "Fold change (peak ROS)", "setting": "[2]", "value": 1.8}
    ]},
    {"smiles": "Cn1cc(C(=O)Nc2cccc3c2C2CCC3C2=C(Cl)Cl)c(C(F)F)n1", "note": "(centres unmarked) [benzovindiflupyr, reference compound]", "values": [
      {"measurement": "% reduction fungal growth", "setting": "[3]; Experiment 2, base segment", "value": 7, "unit": "%"},
      {"measurement": "% reduction fungal growth", "setting": "[3]; Experiment 2, middle segment (treated)", "value": 100, "unit": "%"},
      {"measurement": "% reduction fungal growth", "setting": "[3]; Experiment 2, tip segment", "value": 100, "unit": "%"},
      {"measurement": "% reduction fungal growth", "setting": "[3]; Experiment 3, base segment", "value": 21, "unit": "%"},
      {"measurement": "% reduction fungal growth", "setting": "[3]; Experiment 3, middle segment (treated)", "value": 100, "unit": "%"},
      {"measurement": "% reduction fungal growth", "setting": "[3]; Experiment 3, tip segment", "value": 100, "unit": "%"},
      {"measurement": "% reduction fungal growth", "setting": "[3]; Experiment 4, base segment", "value": 3, "unit": "%"},
      {"measurement": "% reduction fungal growth", "setting": "[3]; Experiment 4, middle segment (treated)", "value": 100, "unit": "%"},
      {"measurement": "% reduction fungal growth", "setting": "[3]; Experiment 4, tip segment", "value": 100, "unit": "%"},
      {"measurement": "% reduction fungal growth", "setting": "Zymoseptoria tritici", "value": 99, "unit": "%"}
    ]},
    {"smiles": "NC[C@@H]1NC(=O)C(C(=O)CC(NC(=O)[C@@H](N)CO)(C(=O)O)C(=O)O)=C1O", "note": "[malonomicin, {[(2S)-2-amino-3-hydroxypropanoyl]amino} {2-[(5S)-5-(aminomethyl)-4-hydroxy-2-oxo-2,5-dihydro-1H-pyrrol-3-yl]-2-oxoethyl} malonic acid, reference compound]", "values": [
      {"measurement": "inhibition of growth at 7.4 µg/mL", "setting": "[4]; malonomicin 7.4 ppm solo", "value": 0, "unit": "%"},
      {"measurement": "inhibition of growth at 22.2 µg/mL", "setting": "[4]; malonomicin 22.2 ppm solo", "value": 0, "unit": "%"},
      {"measurement": "inhibition of growth at 66.7 µg/mL", "setting": "[4]; malonomicin 66.7 ppm solo", "value": 70, "unit": "%"},
      {"measurement": "inhibition of growth at 200 µg/mL", "setting": "[4]; malonomicin 200 ppm solo", "value": 100, "unit": "%"},
      {"measurement": "inhibition of growth at 600 µg/mL", "setting": "[4]; malonomicin 600 ppm solo", "value": 75, "unit": "%"},
      {"measurement": "inhibition of growth at 0.74 µg/mL", "setting": "Puccinia recondita [5]; malonomicin 0.74 ppm solo", "value": 35, "unit": "%"},
      {"measurement": "inhibition of growth at 2.22 µg/mL", "setting": "Puccinia recondita [5]; malonomicin 2.22 ppm solo", "value": 70, "unit": "%"},
      {"measurement": "inhibition of growth at 6.67 µg/mL", "setting": "Puccinia recondita [5]; malonomicin 6.67 ppm solo", "value": 100, "unit": "%"},
      {"measurement": "inhibition of growth at 20 µg/mL", "setting": "Puccinia recondita [5]; malonomicin 20 ppm solo", "value": 100, "unit": "%"},
      {"measurement": "inhibition of growth at 200 µg/mL", "setting": "Puccinia recondita [5]; malonomicin 200 ppm solo", "value": 100, "unit": "%"},
      {"measurement": "control of fungal growth", "setting": "Parastagonospora nodorum; malonomicin 7.4 ppm solo", "value": 0, "unit": "%"},
      {"measurement": "control of fungal growth", "setting": "Parastagonospora nodorum; malonomicin 22.2 ppm solo", "value": 45, "unit": "%"},
      {"measurement": "control of fungal growth", "setting": "Parastagonospora nodorum; malonomicin 66.7 ppm solo", "value": 50, "unit": "%"},
      {"measurement": "control of fungal growth", "setting": "Parastagonospora nodorum; malonomicin 200 ppm solo", "value": 90, "unit": "%"},
      {"measurement": "control of fungal growth", "setting": "Parastagonospora nodorum; malonomicin 600 ppm solo", "value": 95, "unit": "%"},
      {"measurement": "control of fungal growth", "setting": "Puccinia recondita [6]; malonomicin 0.74 ppm solo", "value": 0, "unit": "%"},
      {"measurement": "control of fungal growth", "setting": "Puccinia recondita [6]; malonomicin 2.22 ppm solo", "value": 10, "unit": "%"},
      {"measurement": "control of fungal growth", "setting": "Puccinia recondita [6]; malonomicin 6.67 ppm solo", "value": 80, "unit": "%"},
      {"measurement": "control of fungal growth", "setting": "Puccinia recondita [6]; malonomicin 20 ppm solo", "value": 100, "unit": "%"},
      {"measurement": "control of fungal growth", "setting": "Puccinia recondita [6]; malonomicin 200 ppm solo", "value": 100, "unit": "%"}
    ]}
  ]
}
